# Earlier results as cited in patent US20230149425A1, “PROCESS AND THERAPEUTIC COMPOSITION FOR TREATING AND PREVENTING SEVERE INJECTION SITE REACTIONS” (Brii Biosciences, Inc., priority 2021, published 2023).
# What was measured:
# [1] = oral
# [2] = lactating women
compound,measurement,setting,value
C[C@@]1(O)CC[C@H]2[C@H](CC[C@@H]3[C@@H]2CC[C@]2(C)[C@@H](C(=O)Cn4cc(C#N)cn4)CC[C@@H]32)C1 [SAGE-217],reduction of depressive symptoms in clinical trials,[1]; administration for 14 days,mixed results
same,adverse events versus placebo,[1]; clinical trials,more adverse events than the placebo
"CC(=O)[C@H]1CC[C@H]2[C@@H]3CC[C@H]4C[C@H](O)CC[C@]4(C)[C@H]3CC[C@]12C [brexanolone, 5α-pregnane-3α-ol-20-one]",concentrations in milk and plasma,[2],low
same,risk to breastfed infants,[2],low risk
C[C@]12CCC(=O)C=C1CC[C@@H]1[C@@H]2C(=O)C[C@@]2(C)[C@H]1CC[C@]2(O)C(=O)CO [cortisone],safety and pain relief of injection in lactating women,,safe and efficient for pain relief
